Measurements taken from patent US9593110B2, “Neprilysin inhibitors” (Theravence Biopharma R&D IP, LLC, priority 2014, dated 2017).

The compounds below were run against human NEP (Homo sapiens (Human), UniProt P08473) (assay: In vitro enzyme inhibition assay at human NEP). Conditions: pKi, recombinant human NEP, fluorogenic peptide substrate, 37° C.
Sequence of human NEP (P08473 52-750): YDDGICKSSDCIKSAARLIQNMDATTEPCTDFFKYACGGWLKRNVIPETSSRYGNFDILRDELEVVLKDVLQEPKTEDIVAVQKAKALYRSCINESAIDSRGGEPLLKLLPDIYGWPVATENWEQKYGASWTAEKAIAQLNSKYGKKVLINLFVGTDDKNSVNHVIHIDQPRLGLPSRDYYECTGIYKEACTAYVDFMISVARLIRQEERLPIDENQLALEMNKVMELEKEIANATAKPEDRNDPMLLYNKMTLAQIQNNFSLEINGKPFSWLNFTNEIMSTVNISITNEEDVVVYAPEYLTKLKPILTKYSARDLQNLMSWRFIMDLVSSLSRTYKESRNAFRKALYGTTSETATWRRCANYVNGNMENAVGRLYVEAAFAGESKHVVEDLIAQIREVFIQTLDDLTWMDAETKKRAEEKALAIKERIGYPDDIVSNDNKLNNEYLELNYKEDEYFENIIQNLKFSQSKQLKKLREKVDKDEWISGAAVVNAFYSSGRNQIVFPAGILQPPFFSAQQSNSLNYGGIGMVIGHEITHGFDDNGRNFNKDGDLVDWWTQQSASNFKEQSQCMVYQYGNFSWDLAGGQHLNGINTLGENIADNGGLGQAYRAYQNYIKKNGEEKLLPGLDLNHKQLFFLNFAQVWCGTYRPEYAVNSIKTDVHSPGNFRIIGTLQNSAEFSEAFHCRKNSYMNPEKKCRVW

Row | Structure (SMILES) | Ki
1 | CC(C)c1coc(C(=O)N[C@H](Cc2ccc(-c3cc(Cl)ccc3F)cc2)C[C@@H](NC(=O)[C@@H](N)CO)C(=O)O)n1 [Example 42-2, (2R,4R)-2-((S)-2-Amino-3-hydroxypropionylamino)-5-(5′-chloro-2′-fluorobiphenyl-4-yl)-4-[(4-isopropyloxazole-2-carbonyl)amino]pentanoic Acid] | 1.26 to 3.16 nM
2 | Cc1cnc(C(=O)N[C@H](Cc2ccc(-c3cc(Cl)ccc3F)cc2)C[C@@H](CNC(=O)CN)C(=O)O)o1 [Example 43, (2S,4S)-2-[(2-Aminoacetylamino)methyl]-5-(5′-chloro-2′-fluorobiphenyl-4-yl)-4-[(5-methyloxazole-2-carbonyl)amino]pentanoic Acid] | ≤ 1 nM
3 | Cc1cnc(C(=O)N[C@H](Cc2ccc(-c3cc(Cl)ccc3F)cc2)C[C@@H](CNC(=O)C(C)(C)N)C(=O)O)o1 [Example 45, (2S,4S)-2-[(2-Amino-2-methylpropionylamino)methyl]-5-(5′-chloro-2′-fluorobiphenyl-4-yl)-4-[(5-methyloxazole-2-carbonyl)-amino]pentanoic Acid] | ≤ 1 nM
4 | COC(=O)N[C@H](C(=O)N[C@H](C[C@@H](Cc1ccc(-c2cc(Cl)ccc2F)cc1)NC(=O)c1c[nH]nn1)C(=O)O)C(C)C [Example 46, (2R,4R)-5-(5′-Chloro-2′-fluorobiphenyl-4-yl)-2-((S)-2-methoxycarbonylamino-3-methylbutyrylamino)-4-[(1H-[1,2,3]triazole-4-carbonyl)amino]pentanoic Acid] | 1.26 to 3.16 nM
5 | CS(=O)(=O)N[C@H](C[C@@H](Cc1ccc(-c2ccccc2)cc1)NC(=O)c1c[nH]nn1)C(=O)O [Example 47, (2R,4R)-5-Biphenyl-4-yl-2-methanesulfonylamino-4-[(1H-[1,2,3]triazole-4-carbonyl)amino]pentanoic Acid] | 3.16 to 10 nM
6 | N#CC[C@H](C[C@@H](Cc1ccc(-c2cc(Cl)ccc2F)cc1)NC(=O)c1c[nH]nn1)C(=O)O [Example 51, (2S,4S)-5-(5′-chloro-2′-fluorobiphenyl-4-yl)-2-cyanomethyl-4-[(3H-[1,2,3]triazole-4-carbonyl)amino]pentanoic acid] | 1.26 to 3.16 nM
7 | N#CC[C@H](C[C@@H](Cc1ccc(-c2cc(Cl)ccc2F)cc1)NC(=O)c1cnsc1)C(=O)O [Example 52-3, (2S,4S)-5-(5′-Chloro-2′-fluorobiphenyl-4-yl)-2-cyanomethyl-4-[(isothiazole-4-carbonyl)amino]pentanoic acid] | 1.26 to 3.16 nM
8 | NC(=O)C[C@@H](C[C@@H](Cc1ccc(-c2cccc(F)c2)cc1)NC(=O)c1cnn[nH]1)C(=O)O [Example 54, (2R,4S)-2-Carbamoylmethyl-5-(3′-fluorobiphenyl-4-yl)-4-[(3H-[1,2,3]triazole-4-carbonyl)amino]pentanoic Acid] | 1.26 to 3.16 nM
9 | O=C(N[C@H](Cc1ccc(-c2cc(Cl)ccc2F)cc1)C[C@@H](NC(=O)[C@@H]1CCCN1)C(=O)O)c1cnn[nH]1 [Example 55, (2R,4R)-5-(5′-Chloro-2′-fluorobiphenyl-4-yl)-2-[((S)-pyrrolidine-2-carbonyl)amino]-4-[(3H-[1,2,3]triazole-4-carbonyl)amino]pentanoic Acid] | 3.16 to 10 nM

Same assay, conditions: recombinant human NEP, fluorogenic peptide substrate, 37° C.

Row | pKi | Structure (SMILES)
10 | ≧9.0 | NCC(=O)NC[C@H](C[C@@H](Cc1ccc(-c2cc(Cl)ccc2F)cc1)NC(=O)c1cnn[nH]1)C(=O)O [Example 44-1, (2S,4S)-2-[(2-Aminoacetylamino)methyl]-5-(5′-chloro-2′-fluorobiphenyl-4-yl)-4-[(3H-[1,2,3]triazole-4-carbonyl)amino]pentanoic acid]
11 | ≧9.0 | N#CC[C@H](C[C@@H](Cc1ccc(-c2ccccc2)cc1)NC(=O)c1cnn[nH]1)C(=O)O [Example 50, (2S,4S)-5-Biphenyl-4-yl-2-cyanomethyl-4-[(3H-[1,2,3]triazole-4-carbonyl)amino]pentanoic Acid]
12 | ≧9.0 | NC(=O)C[C@H](C[C@@H](Cc1ccc(-c2ccccc2)cc1)NC(=O)c1cnn[nH]1)C(=O)O [Example 53, (2S,4S)-5-Biphenyl-4-yl-2-carbamoylmethyl-4-[(3H-[1,2,3]triazole-4-carbonyl)amino]pentanoic Acid]
